Experimental data: patent US12534429B2, “Heterodimers of glutamic acid” (Molecular Insight Pharmaceuticals, Inc., priority 2006, dated 2026)
Where two headings read alike, the source gives them in different places. Each block holds one compound with its values, some of them ahead of it.

Assays:
[1] = target: T1, PSMA on LNCaP cells (Homo sapiens, UniProt Q04609); assay: In vitro cell binding: competition with I-131 DCIT for binding to PSMA on LNCaP cells
T1 construct: LNCaP human prostate cancer cells were obtained from American Type Culture Collection; host or cells: LNCaP human prostate cancer cells
Description: In vitro cold screening assays verses I-131 DCIT. LNCaP and PC3 human prostate cancer cells were obtained from American Type Culture Collection, Rockville, MD LNCaP cells were maintained in RPMI-1640 medium supplemented with 10% fetal bovine serum (FBS). PC3 cells were grown in F12K medium supplemented with 10% FBS. Binding of the radiolabeled compound and competition with cold derivatives to LNCaP and PC-3 cells was performed according to the methods of Tang et al. (Tang, H.; Brown, M.; Ye, Y.; Huang, G.; Zhang, Y.; Wang, Y.; Zhai, H.; Chen, X.; Shen, T. Y.; Tenniswood, M., Prostate targeting ligands based on N-acetylated alpha-linked acidic dipeptidase, Biochem. Biophys. Res. Commun. 2003, 307, 8-14) with appropriate modifications. Cells were plated in 12-well plates at approximately 4×10^5 cells/well and incubated for 48 hours in a humidified incubator at 37° C./5% carbon dioxide prior to addition of compound. Each unique SAAC-urea-Glu conjugate was prepared and diluted in serum-free cell culture medium containing 0.5% bovine serum albumin (BSA) in combination with 3 nM I-131 DCIT (known inhibitor). Total binding was determined by incubating I-131 DCIT without test compound. Plates were incubated at room temperature for 1 hour. Cells were removed from the plates by gently pipeting and transferred to eppendorff tubes. Samples were microcentrifuged for 15 seconds at 10K×g. The medium was aspirated and the pellet was washed twice by dispersal in fresh assay medium followed by microcentrifugation. Cell binding of I-131 DCIT was determined by counting the cell pellet in an automated gamma counter. […] The control compounds are depicted below.
The ability of non-radioactive analogs to compete with ^131I-DCIT for binding to PSMA was tested in the PSMA positive human prostate cancer cell line, LNCaP cells. LNCaP cells (300,000 cells/well) were incubated for 1 hour with 3 nM [^131I]-DCIT in the presence of 1-10,000 nM MIP-1072 in RPMI-1640 medium supplemented with 0.5% bovine serum albumin, then washed and counted in a gamma counter. All documents cited in this specification including patent applications are incorporated by reference in their entirety.

[2] = target: PSMA (LnCap cells) (Homo sapiens, UniProt Q04609); assay: Scatchard analysis in PSMA cellular binding assay (nonradiolabeled DCIT with I-131 DCIT)
Description: FIG. 6 is Scatchard Analysis in PSMA Cellular Binding Assay with cold 2-{3-[1-Carboxy-2-(4-hydroxy-phenyl)-ethyl]-ureido}-pentanedioic acid (DCT).
(§1) (ii) In vitro dose screening. […] Binding constants were determined by incubating LnCap cells with various amounts of nonradiolabeled DCIT in the presence of a constant amount of I-131 DCIT and dividing by the specific activity of each solution to determine the number of fmoles compound bound (FIG. 6).

[3] = system: PC3 cells; assay: Direct binding of radiolabeled DCIT to PSMA-negative PC3 cells; design: species or system human
Description: (§2) The histograms show the mean f SEM, each experiment was performed in duplicate.
(§3) In vitro cold screening assays verses I-131 DCIT. LNCaP and PC3 human prostate cancer cells were obtained from American Type Culture Collection, Rockville, MD LNCaP cells were maintained in RPMI-1640 medium supplemented with 10% fetal bovine serum (FBS). PC3 cells were grown in F12K medium supplemented with 10% FBS. Binding of the radiolabeled compound and competition with cold derivatives to LNCaP and PC-3 cells was performed according to the methods of Tang et al. (Tang, H.; Brown, M.; Ye, Y.; Huang, G.; Zhang, Y.; Wang, Y.; Zhai, H.; Chen, X.; Shen, T. Y.; Tenniswood, M., Prostate targeting ligands based on N-acetylated alpha-linked acidic dipeptidase, Biochem. Biophys. Res. Commun. 2003, 307, 8-14) with appropriate modifications. […] Total binding was determined by incubating I-131 DCIT without test compound. […] Cell binding of I-131 DCIT was determined by counting the cell pellet in an automated gamma counter. […]
as §1

[4] = system: LnCap cells; assay: Direct binding of radiolabeled DCIT to PSMA-positive LnCap cells; design: species or system human; settings: counts displaceable by nonradiolabeled compound or PMPA
Description: as §2, §3, §1

[5] = Stability of iodine-131 labeled compounds in solution (HPLC); type: physicochemical
Description: FIG. 4A-4D are radio-HPLC chromatograms of I-131 MIP 1072 purified; at 3 days in A) DMSO. B) 3% genstisate-6% Ascorbate/Ascorbic acid, C) PBS, pH=7.2, D) 10% Ethanol in Saline at 37° C.
(§4) The stability of the radiolabeled compound in solution was determined as a function of time. Specifically, after radiolabeling and isolation, the product was stored at room temperature for 48 h after which HPLC analysis was performed to check for degree of label retention, as well as potential product degradation. The reformation of NaI and the presence of the reduced iodates was analyzed.
as §4, with “37° C.” for “room temperature”, “3 days” for “48 h”

[6] = LNCaP cells, 3 nM I-131 DCIT, 1 hour, read-out: IC50 (nM), in vitro cell binding data
[7] = LnCap cells, dose curves, read-out: IC-50 versus I-131 DCIT
[8] = LnCap cells, dose curves, read-out: IC50 values versus I-131 DCIT

T1 sequence (Q04609 whole entry): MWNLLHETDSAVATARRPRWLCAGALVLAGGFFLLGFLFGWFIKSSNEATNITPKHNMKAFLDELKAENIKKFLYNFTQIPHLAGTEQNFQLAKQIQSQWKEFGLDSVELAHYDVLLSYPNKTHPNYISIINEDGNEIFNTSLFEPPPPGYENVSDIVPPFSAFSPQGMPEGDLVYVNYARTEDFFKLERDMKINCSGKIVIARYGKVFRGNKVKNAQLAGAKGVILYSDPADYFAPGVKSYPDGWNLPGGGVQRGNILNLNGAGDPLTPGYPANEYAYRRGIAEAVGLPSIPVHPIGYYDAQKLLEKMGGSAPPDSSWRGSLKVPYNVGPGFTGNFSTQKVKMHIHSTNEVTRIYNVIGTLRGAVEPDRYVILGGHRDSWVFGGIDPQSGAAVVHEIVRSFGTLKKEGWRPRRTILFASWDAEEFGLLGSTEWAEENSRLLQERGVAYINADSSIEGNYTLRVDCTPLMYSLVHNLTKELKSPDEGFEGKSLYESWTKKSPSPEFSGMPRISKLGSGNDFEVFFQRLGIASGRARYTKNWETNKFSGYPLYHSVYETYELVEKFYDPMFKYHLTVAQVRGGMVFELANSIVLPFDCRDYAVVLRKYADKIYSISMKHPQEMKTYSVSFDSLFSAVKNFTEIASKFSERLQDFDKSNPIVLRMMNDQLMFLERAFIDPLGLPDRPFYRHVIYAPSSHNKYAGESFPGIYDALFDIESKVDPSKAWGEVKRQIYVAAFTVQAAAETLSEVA
Chain of PSMA (LnCap cells) (Q04609 whole entry): as above

IC50 [1, 6]: 12 nM
Compound: O=C(O)CC[C@H](NC(=O)N[C@@H](CCCCNC(=O)Nc1ccccc1)C(=O)O)C(=O)O (stereo in doubt) [MIP 1111, 2-(3-{1-Carboxy-5-[3-(phenyl)-ureido]-pentyl}-ureido)-pentanedioic acid]

IC50 [1, 6]: 2960 nM
Compound: O=C(O)CC[C@H](NC(=O)NC(CCCCNCc1ccccc1)C(=O)O)C(=O)O (stereo in doubt) [MIP-1106, (S)-2-(3-((R)-5-(benzylamino)-1-carboxypentyl)ureido)pentanedioic acid]

Compound: O=C(O)CC[C@H](NC(=O)N[C@@H](Cc1ccc(O)c(I)c1)C(=O)O)C(=O)O [DCIT, N—[N—[(S)-1,3-dicarboxypropyl]carbamoyl]-S-3-iodo-L-tyrosine]
Bmax [2]: 254 fmol
Kd [2]: 0.264 µM

Compound: O=C(O)CC[C@H](NC(=O)N[C@@H](Cc1ccc(O)c([123I])c1)C(=O)O)C(=O)O [I-123 DCIT]
specific binding to PC3 cells [3]: not PC3 cells
specific binding to LnCap cells [4]: bound specifically

Compound: O=C(O)CC[C@H](NC(=O)N[C@@H](CCCCNCc1ccc([131I])cc1)C(=O)O)C(=O)O [I-131 1072]
stability by radio-HPLC ([5]; 3 days at 37° C. in DMSO, gentisate/ascorbate, PBS pH 7.2, 10% ethanol in saline): remained stable
labeling stability (degradation) ([5]; out to 3 days at room temperature in DMSO, 10% ethanol/saline, PBS pH 7.2, 6% ascorbate/3% gentisic acid): no significant degradation

Compound: O=C(O)CC[C@H](NC(=O)N[C@@H](Cc1ccc(O)c(I)c1)C(=O)O)C(=O)O [I-131 DCIT, N—[N—[(S)-1,3-dicarboxypropyl]carbamoyl]-S-3-iodo-L-tyrosine]
labeling stability (degradation) ([5]; out to 2 days at room temperature): no significant degradation
specific binding to PC3 cells [3]: not PC3 cells
specific binding to LnCap cells [4]: bound specifically

IC50 [1, 7]: 98 nM
competition with I-131 DCIT for binding to LnCap cells ([1]; screen at 2 uM test compound): competed
Compound: O=C(O)CC[C@H](NC(=O)N[C@@H](CCCCN(Cc1ccccn1)Cc1ccccn1)C(=O)O)C(=O)O [MIP 1008, (S, S)-2-{3-[5-(Bis-pyridin-2-ylmethyl-amino)-1-carboxy-pentyl]-ureido}-pentanedioic acid]

competition with I-131 DCIT for binding to LnCap cells ([1]; screen at 2 uM test compound): did not compete
Compound: O=C(O)CC[C@H](NC(=O)N(Cc1ccccn1)Cc1ccccn1)C(=O)O [MIP 1025, (S)-2-(3,3-Bis-pyridin-2-ylmethyl-ureido)-pentanedioic acid]

competition with I-131 DCIT for binding to LnCap cells ([1]; screen at 2 uM test compound): did not compete
Compound: O=C(O)CC[C@H](NC(=O)N[C@@H](CCN(Cc1ccccn1)Cc1ccccn1)C(=O)O)C(=O)O [MIP 1028, (S, S)-2-{3-[3-(Bis-pyridin-2-ylmethyl-amino)-1-carboxy-propyl]-ureido}-pentanedioic acid]

Compound: NCCCC[C@H](NC(=O)N[C@@H](CCC(=O)O)C(=O)O)C(=O)O [MIP 1033, (S, S)-2-[3-(5-Amino-1-carboxy-pentyl)-ureido]-pentanedioic acid]
IC50 [1, 6]: 498 nM
IC50 [1, 7]: 497 nM
competition with I-131 DCIT for binding to LnCap cells ([1]; screen at 2 uM test compound): competed

IC50 [1, 6]: 10 nM
IC50 [1, 8]: < 50 nM
Compound: O=C(O)CC[C@H](NC(=O)N[C@@H](CCCCNC(=O)Nc1ccc(I)cc1)C(=O)O)C(=O)O [MIP 1095, 2-(3-{1-Carboxy-5-[3-(4-iodo-phenyl)-ureido]-pentyl}-ureido)-pentanedioic acid]

IC50 [1, 8]: < 50 nM
Compound: O=C(O)CC[C@H](NC(=O)N[C@@H](CCCCNS(=O)(=O)c1ccc(I)cc1)C(=O)O)C(=O)O [MIP 1097, 2-{3-[1-carboxy-5-(4-iodo-benzenesulfonylamino)-pentyl]-ureido}-pentanedioic acid]

IC50 [1, 6]: 4 nM
Compound: O=C(O)CC[C@H](NC(=O)N[C@@H](CCCCNC(=O)Nc1ccc(Cl)cc1)C(=O)O)C(=O)O [MIP 1110, 2-(3-{1-Carboxy-5-[3-(4-chloro-phenyl)-ureido]-pentyl}-ureido)-pentanedioic acid]

IC50 [1, 6]: 277 nM
Compound: O=C(O)CC[C@H](NC(=O)N[C@@H](CCCCNCc1cccc(Cl)c1)C(=O)O)C(=O)O [MIP 1131, (S, S)-2-{3-[1-Carboxy-5-(3-chloro-benzylamino)-pentyl]-ureido}-pentanedioic]

IC50 [1, 6]: 2 nM
Compound: O=C(O)CC[C@H](NC(=O)N[C@@H](CCCCNCc1ccc(Cl)cc1)C(=O)O)C(=O)O [MIP 1135, (S, S)-2-{3-[1-Carboxy-5-(4-chloro-benzylamino)-pentyl]-ureido}-pentanedioic]

IC50 [1, 6]: 10 nM
Compound: O=C(O)CC[C@H](NC(=O)N[C@@H](CCCCNC(=O)NCc1cccc(I)c1)C(=O)O)C(=O)O [MIP-1101, 2-(3-{1-Carboxy-5-[3-(3-iodo-benzyl)-ureido]-pentyl}-ureido)-pentanedioic acid]

IC50 [1, 6]: 154 nM
Compound: O=C(O)CC[C@H](NC(=O)N[C@@H](CCCCNCc1cccc2ccccc12)C(=O)O)C(=O)O [MIP-1108, (S)-2-(3-((R)-1-carboxy-5-([…]yridine[…]ne-1-ylmethylamino)pentyl)ureido)pentanedioic acid]

IC50 [1, 6]: 300 nM
Compound: O=C(O)CC[C@H](NC(=O)N[C@@H](CCCCNC(=O)CCCCCCCCCCN(Cc1ccc(I)cc1)Cc1ccc(I)cc1)C(=O)O)C(=O)O [MIP-1130, (19S,23S)-2-(4-iodobenzyl)-1-(4-iodophenyl)-13,21-dioxo-2,14,20,22-tetraazapentacosane-19,23,25-tricarboxylic acid]

IC50 [1, 6]: 245 nM
Compound: O=C(O)CC[C@H](NC(=O)N[C@@H](CCCCNCc1ccccc1Cl)C(=O)O)C(=O)O [MIP-1137, (S, S)-2-{3-[1-Carboxy-5-(2-chloro-benzylamino)-pentyl]-ureido}-pentanedioic]

Compound: [Re(CO)3(2-{3-[5-(Bis-pyridin-2-ylmethyl-amino)-1-carboxy-pentyl]-ureido}-pentanedioic acid)][Br] [MIP 1029]
competition with I-131 DCIT for binding to LnCap cells [1]: did not compete

IC50 [1, 6]: 227 nM
Compound: [Re(CO)3{(17R,21S)-11,19-dioxo-1-([…]yridine-2-yl)-2-([…]yridine-2-ylmethyl)-5,8-dioxa-2,12,18,20-tetraazatricosane-17,21,23-tricarboxylic acid}][Br] [MIP-1133]

Compound: [Re(CO)3{(19R,23S)-13,21-dioxo-2-([…]yridine-2-ylmethyl)-2,14,20,22-tetraazapentacosane-1,19,23,25-tetracarboxylic acid}] [MIP-1109]
IC50 [1, 6]: 696 nM

IC50 [1, 6]: 1750 nM
Compound: [Re(CO)3{(35R,39S)-29,37-dioxo-1-([…]yridine-2-yl)-2-([…]yridine-2-ylmethyl)-5,8,11,14,17,20,23,26-octaoxa-2,30,36,38-tetraazahentetracontane-35,39,41-tricarboxylic acid}][Br] [MIP-1132]
